A value given as a limit tells only on which side of the number the result lay.

For this assay, the target named is T1, Androgen Receptor (AR) (Homo sapiens, UniProt P10275, T878A).
T1 construct: cell based immuno-fluorescence assay using the LNCaP prostate epithelial cell line; endogenous in cells; host or cells: LNCaP clone FGC (ATCC CRL-1740)
T1 sequence (P10275 1-920 T878A): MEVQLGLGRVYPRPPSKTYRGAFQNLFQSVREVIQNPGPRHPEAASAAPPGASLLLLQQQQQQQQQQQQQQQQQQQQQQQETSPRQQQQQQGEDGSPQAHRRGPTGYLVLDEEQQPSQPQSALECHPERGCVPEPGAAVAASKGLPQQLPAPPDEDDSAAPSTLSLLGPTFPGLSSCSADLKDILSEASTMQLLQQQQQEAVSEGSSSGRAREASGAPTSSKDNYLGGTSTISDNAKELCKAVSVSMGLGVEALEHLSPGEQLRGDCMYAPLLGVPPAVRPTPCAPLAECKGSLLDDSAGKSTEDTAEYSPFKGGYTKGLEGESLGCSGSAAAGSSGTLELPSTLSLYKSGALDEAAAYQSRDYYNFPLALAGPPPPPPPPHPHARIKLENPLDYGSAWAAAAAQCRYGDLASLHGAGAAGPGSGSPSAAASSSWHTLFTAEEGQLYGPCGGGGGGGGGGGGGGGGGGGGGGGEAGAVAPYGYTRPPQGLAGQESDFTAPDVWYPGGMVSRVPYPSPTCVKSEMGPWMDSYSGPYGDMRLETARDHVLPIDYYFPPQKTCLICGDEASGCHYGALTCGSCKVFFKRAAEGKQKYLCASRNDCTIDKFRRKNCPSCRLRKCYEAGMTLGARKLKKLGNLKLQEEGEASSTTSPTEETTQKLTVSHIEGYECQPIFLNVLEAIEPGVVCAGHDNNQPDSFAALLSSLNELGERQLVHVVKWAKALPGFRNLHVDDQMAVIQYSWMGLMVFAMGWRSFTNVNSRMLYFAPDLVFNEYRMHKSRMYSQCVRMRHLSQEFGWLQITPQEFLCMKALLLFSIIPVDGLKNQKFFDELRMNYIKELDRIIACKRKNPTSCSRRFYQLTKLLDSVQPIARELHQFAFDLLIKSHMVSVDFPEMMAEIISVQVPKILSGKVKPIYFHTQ
Kind of assay: LNCaP Androgen Receptor Down-regulation Cell Assay (immunofluorescence end point). Type of assay: cell-based. Conditions: LNCaP prostate carcinoma cells, compound incubation 20-22 hours, 50% reduction of the AR signal; read-out: Androgen Receptor Down-regulation Assay (a) IC50/μM. In short, it runs like this:
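AR loss reported as IC50 from curve fits of fluorescence dose-response data, with AR immunostained and read by laser-scanning cytometry. Compound exposure was 20-22 h at 37° C in LNCaP cells grown in 5% charcoal-stripped FBS and plated overnight beforehand.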
As for `FC(F)(F)c1cccc(CN2CCN(c3ccc4nnc(C(F)(F)F)n4n3)CC2)c1` [Example 95, 3-(trifluoromethyl)-6-[4-[[3-(trifluoromethyl)phenyl]methyl]piperazin-1-yl]-[1,2,4]triazolo[4,3-b]pyridazine], the DC50 was 0.67 µM.
As for `Fc1cccc(CN2CCN(c3ccc4nnc(C(F)(F)F)n4n3)CC2)c1` [Example 96, 6-[4-[(3-fluorophenyl)methyl]piperazin-1-yl]-3-(trifluoromethyl)-[1,2,4]triazolo[4,3-b]pyridazine], the figure is above 1.3 µM.
As for `FC(F)(F)c1nnc2ccc(N3CCN(Cc4cccc(Cl)c4)CC3)nn12` [Example 97, 6-[4-[(3-chlorophenyl)methyl]piperazin-1-yl]-3-(trifluoromethyl)-[1,2,4]triazolo[4,3-b]pyridazine], the figure is 0.36 µM; as for `Cc1cc(CN2CCN(c3ccc4nnc(C(F)(F)F)n4n3)CC2)oc1C` [Example 98, 6-[4-[(4,5-dimethylfuran-2-yl)methyl]piperazin-1-yl]-3-(trifluoromethyl)-[1,2,4]triazolo[4,3-b]pyridazine], 2.3 µM; as for `FC(F)(F)c1nnc2ccc(N3CCN(CC4CCCCC4)CC3)nn12` [Example 99, 6-[4-(cyclohexylmethyl)piperazin-1-yl]-3-(trifluoromethyl)-[1,2,4]triazolo[4,3-b]pyridazine], 2.9 µM.
Take `FC1(F)Oc2ccc(CN3CCN(c4ccc5nnc(C(F)(F)F)n5n4)CC3)cc2O1` [Example 100, 6-[4-[(2,2-difluoro-1,3-benzodioxol-5-yl)methyl]piperazin-1-yl]-3-(trifluoromethyl)-[1,2,4]triazolo[4,3-b]pyridazine]: the DC50 worked out at 1.8 µM.
Then `FC(F)(F)c1nnc2ccc(N3CCN(Cc4cc5ccccc5[nH]4)CC3)nn12` [Example 101, 6-[4-(1H-indol-2-ylmethyl)piperazin-1-yl]-3-(trifluoromethyl)-[1,2,4]triazolo[4,3-b]pyridazine], with 1.7 µM; and `FC(F)(F)c1nnc2ccc(N3CCN(Cc4cccc5c4OCO5)CC3)nn12` [Example 102, 6-[4-(1,3-benzodioxol-4-ylmethyl)piperazin-1-yl]-3-(trifluoromethyl)-[1,2,4]triazolo[4,3-b]pyridazine], with 2.9 µM.
Then `FC(F)(F)c1nnc2ccc(N3CCN(Cc4cccc5nccnc45)CC3)nn12` [Example 103, 5-[[4-[3-(trifluoromethyl)[1,2,4]triazolo[4,3-b]pyridazin-6-yl]piperazin-1-yl]methyl]quinoxaline], with 6.2 µM.
Turning to `FC(F)(F)c1nnc2ccc(N3CCN(Cc4cc[nH]c4)CC3)nn12` [Example 104, 6-[4-(1H-pyrrol-3-ylmethyl)piperazin-1-yl]-3-(trifluoromethyl)-[1,2,4]triazolo[4,3-b]pyridazine], the DC50 was 9.5 µM.
Then `Cc1ccc(Oc2cccc(CN3CCN(c4ccc5nnc(C(F)(F)F)n5n4)CC3)c2)cc1` [Example 105, 6-[4-[[3-(4-methylphenoxy)phenyl]methyl]piperazin-1-yl]-3-(trifluoromethyl)-[1,2,4]triazolo[4,3-b]pyridazine], with 3.2 µM; and `CN(C)c1ccc(CN2CCN(c3ccc4nnc(C(F)(F)F)n4n3)CC2)cc1` [Example 106, N,N-dimethyl-4-[[4-[3-(trifluoromethyl)-[1,2,4]triazolo[4,3-b]pyridazin-6-yl]piperazin-1-yl]methyl]aniline], with 4.4 µM; and `CC(=O)Nc1ccc(CN2CCN(c3ccc4nnc(C(F)(F)F)n4n3)CC2)cc1` [Example 107, N-[4-[[4-[3-(trifluoromethyl)-[1,2,4]triazolo[4,3-b]pyridazin-6-yl]piperazin-1-yl]methyl]phenyl]acetamide], with 7.2 µM.
For the compound `CCOc1ccc(CN2CCN(c3ccc4nnc(C(F)(F)F)n4n3)CC2)cc1` [Example 108, 6-[4-[(4-ethoxyphenyl)methyl]piperazin-1-yl]-3-(trifluoromethyl)-[1,2,4]triazolo[4,3-b]pyridazine], the DC50 was 2.3 µM.
Turning to `CCCCOc1ccc(CN2CCN(c3ccc4nnc(C(F)(F)F)n4n3)CC2)cc1` [Example 109, 6-[4-[(4-butoxyphenyl)methyl]piperazin-1-yl]-3-(trifluoromethyl)-[1,2,4]triazolo[4,3-b]pyridazine], the DC50 came out at 7.2 µM.
With `O=[N+]([O-])c1ccc(CN2CCN(c3ccc4nnc(C(F)(F)F)n4n3)CC2)cc1` [Example 111, 6-[4-[(4-nitrophenyl)methyl]piperazin-1-yl]-3-(trifluoromethyl)-[1,2,4]triazolo[4,3-b]pyridazine], the DC50 amounted to 0.77 µM.
Regarding `CN(C)CCCOc1ccc(CN2CCN(c3ccc4nnc(C(F)(F)F)n4n3)CC2)cc1` [Example 112, N,N-dimethyl-3-[4-[[4-[3-(trifluoromethyl)-[1,2,4]triazolo[4,3-b]pyridazin-6-yl]piperazin-1-yl]methyl]phenoxy]propan-1-amine], the DC50 was 4.7 µM.
As for `FC(F)(F)c1nnc2ccc(N3CCN(Cc4ccc(N5CCCC5)cc4)CC3)nn12` [Example 113, 6-[4-[(4-pyrrolidin-1-ylphenyl)methyl]piperazin-1-yl]-3-(trifluoromethyl)-[1,2,4]triazolo[4,3-b]pyridazine], the figure is 7.1 µM; as for `CC(C)(C)Oc1ccc(CN2CCN(c3ccc4nnc(C(F)(F)F)n4n3)CC2)cc1` [Example 114, 6-[4-[[4-[(2-methylpropan-2-yl)oxy]phenyl]methyl]piperazin-1-yl]-3-(trifluoromethyl)-[1,2,4]triazolo[4,3-b]pyridazine], 6.5 µM.
`CC(C)Oc1ccc(CN2CCN(c3ccc4nnc(C(F)(F)F)n4n3)CC2)cc1` [Example 115, 6-[4-[(4-propan-2-yloxyphenyl)methyl]piperazin-1-yl]-3-(trifluoromethyl)-[1,2,4]triazolo[4,3-b]pyridazine]: the DC50 came out at 2.5 µM.
As for `FC(F)(F)Sc1cccc(CN2CCN(c3ccc4nnc(C(F)(F)F)n4n3)CC2)c1` [Example 116, 3-(trifluoromethyl)-6-[4-[[3-(trifluoromethylsulfanyl)phenyl]methyl]piperazin-1-yl]-[1,2,4]triazolo[4,3-b]pyridazine], the figure is 1.1 µM.
Then `FC(F)(F)c1nnc2ccc(N3CCN(Cc4ccc(-c5cccnc5)cc4)CC3)nn12` [Example 117, 6-[4-[(4-pyridin-3-ylphenyl)methyl]piperazin-1-yl]-3-(trifluoromethyl)-[1,2,4]triazolo[4,3-b]pyridazine], with 1.7 µM; and `FC(F)(F)c1nnc2ccc(N3CCN(Cc4cccc(Br)c4)CC3)nn12` [Example 118, 6-[4-[(3-bromophenyl)methyl]piperazin-1-yl]-3-(trifluoromethyl)-[1,2,4]triazolo[4,3-b]pyridazine], with 0.3 µM; and `FC(F)(F)c1nnc2ccc(N3CCN(Cc4cccc(Oc5ccc(Cl)cc5)c4)CC3)nn12` [Example 119, 6-[4-[[3-(4-chlorophenoxy)phenyl]methyl]piperazin-1-yl]-3-(trifluoromethyl)-[1,2,4]triazolo[4,3-b]pyridazine], with 2.2 µM.
As for `COc1ccc(Oc2cccc(CN3CCN(c4ccc5nnc(C(F)(F)F)n5n4)CC3)c2)cc1` [Example 120, 6-[4-[[3-(4-methoxyphenoxy)phenyl]methyl]piperazin-1-yl]-3-(trifluoromethyl)-[1,2,4]triazolo[4,3-b]pyridazine], the figure is 1.7 µM; as for `COC(=O)c1ccc(CN2CCN(c3ccc4nnc(C(F)(F)F)n4n3)CC2)cc1` [Example 121, methyl 4-[[4-[3-(trifluoromethyl)-[1,2,4]triazolo[4,3-b]pyridazin-6-yl]piperazin-1-yl]methyl]benzoate], 4.8 µM; as for `CC(C)(C)c1ccc(CN2CCN(c3ccc4nnc(C(F)(F)F)n4n3)CC2)cc1` [Example 122, 6-[4-[(4-tert-butylphenyl)methyl]piperazin-1-yl]-3-(trifluoromethyl)-[1,2,4]triazolo[4,3-b]pyridazine], 4.3 µM.
`CC(C)Cc1ccc(CN2CCN(c3ccc4nnc(C(F)(F)F)n4n3)CC2)cc1` [Example 123, 6-[4-[[4-(2-methylpropyl)phenyl]methyl]piperazin-1-yl]-3-(trifluoromethyl)-[1,2,4]triazolo[4,3-b]pyridazine]: the DC50 came out at 4.1 µM.

For the origin of these results see patent US8003649B2 (AstraZeneca AB, priority 2007, dated 2011).
